Results taken from ChEMBL document CHEMBL3301562, “MMV Box screening against Plasmodium falciparum protein kinases and aminoacyl tRNA synthetases”.

Key:
Assay type in all cases: functional
[1] = biological target: T1, Putative uncharacterized protein pk7 (Plasmodium falciparum, UniProt O96214); experiment: Final concentrations were 1 uM ATP, 2 mM DTT, 20 mM MgCl2, 2 mM MnCl2, 0.01% BSA, and 6 ug/ml PK7, in a buffer of 20 mM Tris-HCl (pH 7.5). The enzyme itself was the only substrate present (since autophosphorylation occurs); 100 uM 1NA-PP1 was used as a control inhibitor. Incubation time was 3 hours.
T1 sequence (O96214 whole entry): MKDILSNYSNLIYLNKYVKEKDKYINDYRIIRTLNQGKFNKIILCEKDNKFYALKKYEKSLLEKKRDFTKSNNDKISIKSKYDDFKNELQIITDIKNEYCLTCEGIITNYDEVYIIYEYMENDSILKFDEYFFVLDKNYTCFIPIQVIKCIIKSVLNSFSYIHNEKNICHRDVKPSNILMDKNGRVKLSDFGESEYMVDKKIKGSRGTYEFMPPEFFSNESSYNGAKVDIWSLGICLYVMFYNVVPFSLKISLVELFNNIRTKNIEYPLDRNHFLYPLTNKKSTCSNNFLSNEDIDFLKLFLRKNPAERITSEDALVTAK

[2] = biological target: T2, Calcium-dependent protein kinase 4 (Plasmodium falciparum (isolate 3D7), UniProt Q8IBS5); experiment: MMV: CDPK4 Protein kinase inhibition assay using recombinant PfCDPK4, syntide2 peptide substrate, ATP and KinaseGlo to measure % inhibition at 1 uM MMV box compound.
T2 sequence (Q8IBS5 whole entry): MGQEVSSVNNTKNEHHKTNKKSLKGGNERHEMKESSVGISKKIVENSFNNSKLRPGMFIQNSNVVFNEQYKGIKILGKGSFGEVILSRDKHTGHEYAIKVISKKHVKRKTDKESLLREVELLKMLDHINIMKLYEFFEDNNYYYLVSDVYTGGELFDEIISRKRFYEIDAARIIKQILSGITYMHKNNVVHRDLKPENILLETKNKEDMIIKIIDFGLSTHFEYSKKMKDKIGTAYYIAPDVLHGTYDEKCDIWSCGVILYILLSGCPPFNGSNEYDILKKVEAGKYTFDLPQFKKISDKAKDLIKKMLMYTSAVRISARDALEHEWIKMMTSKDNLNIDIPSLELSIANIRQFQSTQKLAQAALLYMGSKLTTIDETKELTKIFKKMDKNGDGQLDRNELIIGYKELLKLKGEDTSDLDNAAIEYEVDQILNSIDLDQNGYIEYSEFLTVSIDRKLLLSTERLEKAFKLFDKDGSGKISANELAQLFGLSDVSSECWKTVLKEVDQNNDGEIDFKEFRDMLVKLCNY

[3] = biological target: Calcium-dependent protein kinase 1 (Plasmodium falciparum, UniProt P62344); experiment: MMV: CDPK1 Protein kinase inhibition assay using recombinant PfCDPK1, syntide 2 peptide substrate, ATP and KinaseGlo to measure % inhibition at 1 uM MMV box compound.
Sequence of Calcium-dependent protein kinase 1 (P62344 whole entry): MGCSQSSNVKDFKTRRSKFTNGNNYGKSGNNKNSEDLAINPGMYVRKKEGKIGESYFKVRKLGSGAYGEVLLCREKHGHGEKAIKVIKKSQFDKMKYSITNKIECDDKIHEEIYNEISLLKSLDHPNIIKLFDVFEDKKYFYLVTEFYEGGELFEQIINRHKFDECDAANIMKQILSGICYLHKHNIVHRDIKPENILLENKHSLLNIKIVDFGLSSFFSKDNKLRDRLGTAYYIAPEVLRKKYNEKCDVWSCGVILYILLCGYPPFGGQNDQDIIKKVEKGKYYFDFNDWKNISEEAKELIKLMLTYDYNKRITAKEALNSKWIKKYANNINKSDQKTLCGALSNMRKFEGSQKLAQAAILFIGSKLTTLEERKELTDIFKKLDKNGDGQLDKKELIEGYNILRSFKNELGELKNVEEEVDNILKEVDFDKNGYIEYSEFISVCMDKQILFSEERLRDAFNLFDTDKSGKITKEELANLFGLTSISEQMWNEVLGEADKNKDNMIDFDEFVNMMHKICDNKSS

Lysine--tRNA ligase = Lysine--tRNA ligase (Plasmodium falciparum (isolate 3D7), UniProt Q8IDJ8); experiment: MMV: KRS recombinant Plasmodium falciparum Lysyl-tRNA-synthetase, assay with yeast tRNA, ATP, and lysine and 3 uM MMV malaria box compound, assay read out with kinase glo as % inhibition.
Sequence of Lysine--tRNA ligase (Q8IDJ8 whole entry): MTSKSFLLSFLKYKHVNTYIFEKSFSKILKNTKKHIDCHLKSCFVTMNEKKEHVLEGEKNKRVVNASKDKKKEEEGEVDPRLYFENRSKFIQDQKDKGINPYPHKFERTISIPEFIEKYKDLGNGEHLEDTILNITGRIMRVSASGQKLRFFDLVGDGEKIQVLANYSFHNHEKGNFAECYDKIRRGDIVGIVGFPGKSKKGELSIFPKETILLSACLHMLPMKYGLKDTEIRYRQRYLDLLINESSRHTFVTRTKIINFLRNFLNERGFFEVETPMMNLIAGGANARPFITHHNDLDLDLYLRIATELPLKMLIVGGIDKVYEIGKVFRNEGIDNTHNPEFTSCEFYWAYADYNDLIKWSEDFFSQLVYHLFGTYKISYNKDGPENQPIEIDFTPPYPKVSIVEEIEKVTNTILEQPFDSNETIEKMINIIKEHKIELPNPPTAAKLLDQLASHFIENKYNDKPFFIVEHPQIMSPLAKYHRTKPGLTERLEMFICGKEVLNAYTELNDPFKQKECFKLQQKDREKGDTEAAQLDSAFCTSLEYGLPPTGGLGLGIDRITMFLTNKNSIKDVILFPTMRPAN

[4] = biological target: T3, Mitogen-activated protein kinase (Plasmodium falciparum, UniProt Q25917); experiment: Final concentrations were 1 uM ATP, 0.5 mM DTT, 1 mM MgCl2, 0.5 mg/mL BSA, and 10 ug/ml MAP2 in a buffer of 50 mM HEPES (pH 7.0). 0.5 mg/mL histone III-S served as the substrate (13); 100 uM AMP-PNP, an ATP analog, was used as a control inhibitor. Incubation time was 4 hours.
T3 sequence (Q25917 whole entry): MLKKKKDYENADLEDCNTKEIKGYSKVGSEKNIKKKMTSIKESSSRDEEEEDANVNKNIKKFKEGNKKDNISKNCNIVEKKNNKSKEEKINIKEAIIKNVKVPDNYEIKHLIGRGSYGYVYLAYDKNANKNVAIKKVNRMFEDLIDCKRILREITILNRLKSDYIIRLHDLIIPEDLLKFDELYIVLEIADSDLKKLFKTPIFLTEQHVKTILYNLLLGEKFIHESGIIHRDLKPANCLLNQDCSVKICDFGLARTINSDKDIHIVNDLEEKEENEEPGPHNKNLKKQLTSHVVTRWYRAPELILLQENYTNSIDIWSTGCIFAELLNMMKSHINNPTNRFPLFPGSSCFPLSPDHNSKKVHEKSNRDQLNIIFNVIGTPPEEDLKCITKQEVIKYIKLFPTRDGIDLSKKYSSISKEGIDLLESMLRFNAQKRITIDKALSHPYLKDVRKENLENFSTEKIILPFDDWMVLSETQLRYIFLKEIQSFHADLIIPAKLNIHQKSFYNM

[5] = biological target: T4, Cdk-related protein kinase 6 (Plasmodium falciparum, UniProt O77239); experiment: Final concentrations were 1.5 uM ATP, 5 mM MnCl2, and 15 ug/ml PK6 in a buffer of 100 mM Tris-HCl (pH 7.5). 50 ug/mL MBP was provided as the substrate; 10 uM staurosporine was used as a control inhibitor. Incubation time was 3 hours and 40 minutes.The catalytic activity of each kinase was considered proportional to ATP consumed, as determined from measurements of residual [ATP] with the luciferase-based reagent Kinase-Glo (Promega) following incubation. Luminescence (proportional to residual [ATP]) was measured on the plate readers FLx800 (BioTek Instruments, Winooski, VT, USA) and MicroBeta2.
T4 sequence (O77239 whole entry): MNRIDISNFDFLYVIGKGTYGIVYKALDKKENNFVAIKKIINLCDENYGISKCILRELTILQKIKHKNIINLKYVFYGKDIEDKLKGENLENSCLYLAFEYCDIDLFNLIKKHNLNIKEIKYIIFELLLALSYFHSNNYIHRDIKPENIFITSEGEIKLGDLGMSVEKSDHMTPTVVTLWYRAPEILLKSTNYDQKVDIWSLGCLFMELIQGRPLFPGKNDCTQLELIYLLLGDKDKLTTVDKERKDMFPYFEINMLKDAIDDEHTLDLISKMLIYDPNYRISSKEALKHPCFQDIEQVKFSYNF

Proline--tRNA ligase = biological target: T5, Proline--tRNA ligase (Plasmodium falciparum (isolate 3D7), UniProt Q8I5R7); experiment: MMV: ProRS recombinant Plasmodium falciparum Prolyl-tRNA-synthetase, assay with yeast tRNA, ATP, and proline and 3 uM MMV malaria box compound, assay read out with kinase glo as % inhibition.
T5 sequence (Q8I5R7 whole entry): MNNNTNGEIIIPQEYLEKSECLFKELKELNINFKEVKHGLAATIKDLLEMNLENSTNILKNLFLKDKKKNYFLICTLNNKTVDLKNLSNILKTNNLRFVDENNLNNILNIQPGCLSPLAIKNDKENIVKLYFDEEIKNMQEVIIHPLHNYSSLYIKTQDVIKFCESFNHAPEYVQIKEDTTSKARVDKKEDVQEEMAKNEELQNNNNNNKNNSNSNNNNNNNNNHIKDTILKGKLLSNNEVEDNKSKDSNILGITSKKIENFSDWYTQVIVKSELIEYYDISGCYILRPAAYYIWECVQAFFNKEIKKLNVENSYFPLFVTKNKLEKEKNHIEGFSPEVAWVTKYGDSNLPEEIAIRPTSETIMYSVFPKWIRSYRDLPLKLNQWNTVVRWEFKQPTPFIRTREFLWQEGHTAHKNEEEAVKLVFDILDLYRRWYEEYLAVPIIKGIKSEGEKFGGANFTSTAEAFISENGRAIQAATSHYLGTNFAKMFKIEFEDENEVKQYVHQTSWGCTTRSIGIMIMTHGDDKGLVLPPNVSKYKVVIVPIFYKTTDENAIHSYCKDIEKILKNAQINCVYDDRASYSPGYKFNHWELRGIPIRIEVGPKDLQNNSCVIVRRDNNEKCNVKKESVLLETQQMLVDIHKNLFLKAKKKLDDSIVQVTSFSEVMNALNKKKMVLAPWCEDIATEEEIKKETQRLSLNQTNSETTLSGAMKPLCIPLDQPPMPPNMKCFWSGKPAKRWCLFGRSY

Compound	IC50 [1] [µM]	IC50 [2] [µM]	IC50 [3] [µM]	IC50 (Lysine--tRNA ligase) [µM]	IC50 [4] [µM]	IC50 [5] [µM]	IC50 (Proline--tRNA ligase) [µM]
COc1ccc(-c2cc3c(nn2)-c2ccccc2C3=O)cc1	> 1	> 1	> 1	> 2.5	> 1	> 1	> 2.5
COc1ccc(CN2CCCC(C(=O)c3ccc(C(F)(F)F)cc3)C2)c(O)c1 (stereo not given)	> 1	> 1	> 1	> 2.5	> 1	> 1	> 2.5
O=C(NC1CCCCC1)C(c1cccs1)N(CCc1ccccc1)C(=O)c1ccco1 (stereo not given)	> 1	> 1	> 1	> 2.5	> 1	> 1	> 2.5
c1ccc2c(NCCCCCCNc3c4c(nc5ccccc35)CCCC4)c3c(nc2c1)CCCC3	> 1	> 1	> 1	> 2.5	> 1	> 1	> 2.5
N=c1c2ccccc2nnn1-c1cccc(C(F)(F)F)c1	> 1	> 1	> 1	> 2.5	> 1	> 1	> 2.5
COc1cc(-c2nc(-c3ccc(Sc4ccccc4)cc3)c(-c3ccccc3)[nH]2)cc(OC)c1O	> 1	> 1	> 1	> 2.5	> 1	> 1	> 2.5
COc1ccc(C2NCCc3c2[nH]c2ccccc32)cc1CN1CCN(c2ccc(F)cc2)CC1 (stereo not given)	> 1	> 1	> 1	> 2.5	> 1	> 1	> 2.5
OC(Cn1nnc2ccccc21)Cn1c2ccc(Br)cc2c2cc(Br)ccc21 (stereo not given)	> 1	> 1	> 1	> 2.5	> 1	> 1	> 2.5
Cc1ccc(C)c(Cn2c(N3CCC(C(=O)NCc4cccs4)CC3)nc3ccccc32)c1	> 1	> 1	> 1	> 2.5	> 1	> 1	> 2.5
Cc1ccccc1OCCSc1nc2ccc(NC(=O)c3cccs3)cc2s1	> 1	> 1	> 1	> 2.5	> 1	> 1	> 2.5
